Structures can show the parent of a compound that is named as a salt.

In the assay the target is IRAK4 (Homo sapiens (Human), UniProt Q9NWZ3). The assay is described as follows: IRAK4 Kinase Assay. Type of assay: biochemical. Conditions: IMAP fluorescence polarization, 0.5 nM GST tagged IRAK4, 100 μM ATP, 30 minutes at 25° C.; read-out: IRAK4 IC50.
Chain of IRAK4 (Q9NWZ3 whole entry): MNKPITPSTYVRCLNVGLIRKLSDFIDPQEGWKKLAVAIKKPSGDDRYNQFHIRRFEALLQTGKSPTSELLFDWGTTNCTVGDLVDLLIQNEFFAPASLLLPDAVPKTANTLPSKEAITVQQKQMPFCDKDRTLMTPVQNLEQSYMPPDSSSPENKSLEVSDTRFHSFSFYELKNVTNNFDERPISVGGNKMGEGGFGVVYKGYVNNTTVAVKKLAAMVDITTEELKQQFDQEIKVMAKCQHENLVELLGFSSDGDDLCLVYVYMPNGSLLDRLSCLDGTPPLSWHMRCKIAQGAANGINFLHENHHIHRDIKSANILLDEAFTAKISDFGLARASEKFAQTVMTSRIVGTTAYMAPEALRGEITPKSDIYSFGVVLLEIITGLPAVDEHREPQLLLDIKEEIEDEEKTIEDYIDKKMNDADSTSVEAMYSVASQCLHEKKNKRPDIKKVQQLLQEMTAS
Description: The kinase activity of IRAK4 is determined by its ability to catalyze the phosphorylation of a fluorescent polypeptide substrate. The extent of phosphorylation is measured using the IMAP technology (Molecular Devices) where the phosphorylated fluorescent substrate binds to the large M(III)-based nanoparticles which reduces the rotational speed of the substrate and thus increases its fluorescent polarization (FP).
20 μL reaction mixture contains 10 mM TriHCl, pH 7.2, 0.5 nM GST tagged IRAK4 (SignalChem), 100 nM fluorescent peptide substrate (RP7030, Molecular Devices), 100 μM ATP, 1 mM DDT, 1 mM MgCl2, and 0.01% Tween 20. The reaction is initiated by the addition of ATP. After incubation for 30 minutes at 25° C., 60 μL of Progressive IMAP Reagent (Molecular Devices) is added to stop the reaction. Change in RP7030's FP is determined by a FP reader (Analyst HT, LJL BioSystems).
Turning to `CN(C)[C@H]1CCCC[C@H]1Nc1ccn2ncc(C(=O)Nc3cn(C)nc3C(F)(F)F)c2n1` [Example 263, 5-(((1R,2S)-2-(Dimethylamino)cyclohexyl)amino)-N-(1-methyl-3-(trifluoromethyl)-1H-pyrazol-4-yl)pyrazolo[1,5-a]pyrimidine-3-carboxamide], the IC50 was determined as 0.072 µM.
To `Cn1cc(NC(=O)c2cnn3ccc(N[C@@H]4CCCC[C@@H]4N4CCOCC4)nc23)c(C(F)(F)F)n1` [Example 264, N-(1-Methyl-3-(trifluoromethyl)-1H-pyrazol-4-yl)-5-(((1R,2S)-2-morpholinocyclohexyl)amino)pyrazolo[1,5-a]pyrimidine-3-carboxamide] belongs 0.019 µM; to `N#Cc1ccccc1NC(=O)c1cnn2ccc(N[C@@H]3CCCC[C@@H]3N)nc12` [Example 265, 5-(((1R,2S)-2-Aminocyclohexyl)amino)-N-(2-cyanophenyl)pyrazolo[1,5-a]pyrimidine-3-carboxamide], 0.001 µM.
To `N#Cc1ccccc1NC(=O)c1cnn2ccc(N[C@@H]3CCCC[C@@H]3O)nc12` [Example 266, N-(2-cyanophenyl)-5-{[(1R,2S)-2-hydroxycyclohexyl]amino}pyrazolo[1,5-a]pyrimidine-3-carboxamide trifluoroacetate] belongs 0.562 µM.
As for `N#Cc1ccccc1NC(=O)c1cnn2ccc(N3CCNCC4(CC4)C3)nc12` [Example 267, N-(2-cyanophenyl)-5-(5,8-diazaspiro[2.6]non-5-yl)pyrazolo[1,5-a]pyrimidine-3-carboxamide trifluoroacetate], the IC50 was 0.351 µM.
To `N#Cc1ccccc1NC(=O)c1cnn2ccc(N[C@@H]3CCCC(F)(F)[C@@H]3N)nc12` [Example 268, 5-{[(1R,2R)-2-amino-3,3-difluorocyclohexyl]amino}-N-(2-cyanophenyl)pyrazolo[1,5-a]pyrimidine-3-carboxamide] belongs 0.268 µM; to `N#Cc1ccccc1NC(=O)c1cnn2ccc(N3CCC[C@@H](N)C3)nc12` [Example 269, 5-[(3R)-3-aminopiperidin-1-yl]-N-(2-cyanophenyl)pyrazolo[1,5-a]pyrimidine-3-carboxamide trifluoroacetate], 0.143 µM; to `N#Cc1ccccc1NC(=O)c1cnn2ccc(N[C@@H]3CCCNC3)nc12` [Example 270, N-(2-cyanophenyl)-5-[(3R)-piperidin-3-ylamino]pyrazolo[1,5-a]pyrimidine-3-carboxamide trifluoroacetate], 0.01 µM.
Take `N#Cc1ccccc1NC(=O)c1cnn2ccc(N3CC4CCC3CN4)nc12` (stereo not drawn) [Example 271, N-(2-cyanophenyl)-5-(2,5-diazabicyclo[2.2.2]oct-2-yl)pyrazolo[1,5-a]pyrimidine-3-carboxamide trifluoroacetate]: the IC50 came to 0.403 µM.
To `N#Cc1ccccc1NC(=O)c1cnn2ccc(NC3CCCCNC3)nc12` (stereo not drawn) [Example 272, 5-(azepan-3-ylamino)-N-(2-cyanophenyl)pyrazolo[1,5-a]pyrimidine-3-carboxamide trifluoroacetate] belongs 0.057 µM; to `N#Cc1ccccc1NC(=O)c1cnn2ccc(N3CCCNCC3)nc12` [Example 273, N-(2-cyanophenyl)-5-(1,4-diazepan-1-yl)pyrazolo[1,5-a]pyrimidine-3-carboxamide trifluoroacetate], 1.36 µM.
On to `N#Cc1ccccc1NC(=O)c1cnn2ccc(N3CCNCC3)nc12` [Example 274, N-(2-cyanophenyl)-5-piperazin-1-ylpyrazolo[1,5-a]pyrimidine-3-carboxamide trifluoroacetate], for which the IC50 was determined as 0.66 µM.
With `N[C@H]1CCCC[C@H]1Nc1ccn2ncc(C(=O)Nc3csc(CO)c3)c2n1` [Example 275, 5-(((1R,2S)-2-Aminocyclohexyl)amino)-N-(5-(hydroxymethyl)thiophen-3-yl)pyrazolo[1,5-a]pyrimidine-3-carboxamide], the IC50 was 0.017 µM.
Turning to `CC(O)c1cc(NC(=O)c2cnn3ccc(N[C@@H]4CCCC[C@@H]4N)nc23)cs1` (stereo partly drawn) [Example 276, 5-(((1R,2S)-2-Aminocyclohexyl)amino)-N-(5-(1-hydroxyethyl)thiophen-3-yl)pyrazolo[1,5-a]pyrimidine-3-carboxamide], the IC50 stood at 0.064 µM.
Consider `N[C@@H]1CCCC[C@@H]1Nc1ccn2ncc(C(=O)Nc3cnn(-c4cccnc4)c3)c2n1` [Example 278, 5-{[(1S,2R)-2-aminocyclohexyl]amino}-N-(1-pyridin-3-yl-1H-pyrazol-4-yl)pyrazolo[1,5-a]pyrimidine-3-carboxamide trifluoroacetate], for which the IC50 is 0.009 µM.
As for `COCCc1nn(C)cc1NC(=O)c1cnn2ccc(N[C@@H]3CCCC[C@@H]3N)nc12` [Example 283, 5-{[(1R,2S)-2-aminocyclohexyl]amino}-N-[3-(2-methoxyethyl)-1-methyl-1H-pyrazol-4-yl]pyrazolo[1,5-a]pyrimidine-3-carboxamide trifluoroacetate], the figure is 0.076 µM; as for `Cc1cnc(-c2nn(C)cc2NC(=O)c2cnn3ccc(N[C@@H]4CCCC[C@@H]4N)nc23)o1` [Example 285, 5-{[(1R,2S)-2-aminocyclohexyl]amino}-N-[1-methyl-3-(5-methyl-1,3-oxazol-2-yl)-1H-pyrazol-4-yl]pyrazolo[1,5-a]pyrimidine-3-carboxamide trifluoroacetate], 0.024 µM; as for `Cn1cc(NC(=O)c2cnn3ccc(N[C@@H]4CCCC[C@@H]4N)nc23)c(-c2nncn2C)n1` [Example 286, 5-{[(1R,2S)-2-aminocyclohexyl]amino}-N-[1-methyl-3-(4-methyl-4H-1,2,4-triazol-3-yl)-1H-pyrazol-4-yl]pyrazolo[1,5-a]pyrimidine-3-carboxamide trifluoroacetate], 0.007 µM.
As for `Cc1nc(-c2nn(C)cc2NC(=O)c2cnn3ccc(N[C@@H]4CCCC[C@@H]4N)nc23)no1` [Example 288, 5-{[(1R,2S)-2-aminocyclohexyl]amino}-N-[1-methyl-3-(5-methyl-1,2,4-oxadiazol-3-yl)-1H-pyrazol-4-yl]pyrazolo[1,5-a]pyrimidine-3-carboxamide], the figure is 0.01 µM.
To `Cn1cc(NC(=O)c2cnn3ccc(N[C@@H]4CCCC[C@@H]4N)nc23)c(CCF)n1` [Example 289, 5-{[(1R,2S)-2-aminocyclohexyl]amino}-N-[3-(2-fluoroethyl)-1-methyl-1H-pyrazol-4-yl]pyrazolo[1,5-a]pyrimidine-3-carboxamide trifluoroacetate] belongs 0.003 µM.
As to `Cn1cc(NC(=O)c2cnn3ccc(NCCN4CCOCC4)nc23)c(C(F)(F)F)n1` [Example 290, N-[1-methyl-3-(trifluoromethyl)-1H-pyrazol-4-yl]-5-[(2-morpholin-4-ylethyl)amino]pyrazolo[1,5-a]pyrimidine-3-carboxamide trifluoroacetate], the IC50 came out at 0.977 µM.
On to `CC(C)n1cc(NC(=O)c2cnn3ccc(N[C@@H]4CCCC[C@@H]4N)nc23)c(C(F)(F)F)n1` [Example 291, 5-{[(1R,2S)-2-aminocyclohexyl]amino}-N-[1-(1-methylethyl)-3-(trifluoromethyl)-1H-pyrazol-4-yl]pyrazolo[1,5-a]pyrimidine-3-carboxamide trifluoroacetate], for which the IC50 amounted to 0.0008 µM.
Regarding `N[C@H]1CCCC[C@H]1Nc1ccn2ncc(C(=O)Nc3cn(CC(F)F)nc3C(F)(F)F)c2n1` [Example 292, 5-{[(1R,2S)-2-aminocyclohexyl]amino}-N-[1-(2,2-difluoroethyl)-3-(trifluoromethyl)-1H-pyrazol-4-yl]pyrazolo[1,5-a]pyrimidine-3-carboxamide trifluoroacetate], the IC50 was 0.0008 µM.
To `N[C@H]1CCCC[C@H]1Nc1ccn2ncc(C(=O)Nc3cn(C4CC4)nc3C(F)(F)F)c2n1` [Example 293, 5-{[(1R,2S)-2-aminocyclohexyl]amino}-N-[1-cyclopropyl-3-(trifluoromethyl)-1H-pyrazol-4-yl]pyrazolo[1,5-a]pyrimidine-3-carboxamide trifluoroacetate] belongs 0.0004 µM; to `CC(C)(C)n1cc(NC(=O)c2cnn3ccc(N[C@@H]4CCCC[C@@H]4N)nc23)c(C(F)(F)F)n1` [Example 294, 5-{[(1R,2S)-2-aminocyclohexyl]amino}-N-[1-tert-butyl-3-(trifluoromethyl)-1H-pyrazol-4-yl]pyrazolo[1,5-a]pyrimidine-3-carboxamide trifluoroacetate], 0.001 µM; to `N[C@H]1CCCC[C@H]1Nc1ccn2ncc(C(=O)Nc3cn(CC(F)(F)F)nc3C(F)(F)F)c2n1` [Example 295, 5-{[(1R,2S)-2-aminocyclohexyl]amino}-N-[1-(2,2,2-trifluoroethyl)-3-(trifluoromethyl)-1H-pyrazol-4-yl]pyrazolo[1,5-a]pyrimidine-3-carboxamide trifluoroacetate], 0.001 µM.
With `N[C@H]1CCCC[C@H]1Nc1ccn2ncc(C(=O)Nc3cn(C(F)F)nc3C(F)(F)F)c2n1` [Example 296, 5-{[(1R,2S)-2-aminocyclohexyl]amino}-N-[1-(difluoromethyl)-3-(trifluoromethyl)-1H-pyrazol-4-yl]pyrazolo[1,5-a]pyrimidine-3-carboxamide trifluoroacetate], the IC50 came out at 0.002 µM.
Regarding `CC(C)n1cc(NC(=O)c2cnn3ccc(N4CCNCC4)nc23)c(C(F)(F)F)n1` [Example 298, N-[1-(1-methylethyl)-3-(trifluoromethyl)-1H-pyrazol-4-yl]-5-piperazin-1-ylpyrazolo[1,5-a]pyrimidine-3-carboxamide trifluoroacetate], the IC50 was 0.017 µM.
Turning to `O=C(Nc1cn(CC(F)(F)F)nc1C(F)(F)F)c1cnn2ccc(N3CCNCC3)nc12` [Example 299, 5-piperazin-1-yl-N-[1-(2,2,2-trifluoroethyl)-3-(trifluoromethyl)-1H-pyrazol-4-yl]pyrazolo[1,5-a]pyrimidine-3-carboxamide trifluoroacetate], the IC50 worked out at 0.081 µM.
Consider `O=C(Nc1cn(C(F)F)nc1C(F)(F)F)c1cnn2ccc(N3CCNCC3)nc12` [Example 300, N-[1-(difluoromethyl)-3-(trifluoromethyl)-1H-pyrazol-4-yl]-5-piperazin-1-ylpyrazolo[1,5-a]pyrimidine-3-carboxamide trifluoroacetate], for which the IC50 stood at 0.055 µM.
